Counter-ions that a name gives are not always drawn.
Target: T1, human SPNS2 (Homo sapiens, UniProt Q8IVW8)
T1 construct: expressed in transfected cells; host or cells: Saccharomyces cerevisiae strain with forced expression of a mammalian SphK and human SPNS2
T1 sequence (Q8IVW8 1-549): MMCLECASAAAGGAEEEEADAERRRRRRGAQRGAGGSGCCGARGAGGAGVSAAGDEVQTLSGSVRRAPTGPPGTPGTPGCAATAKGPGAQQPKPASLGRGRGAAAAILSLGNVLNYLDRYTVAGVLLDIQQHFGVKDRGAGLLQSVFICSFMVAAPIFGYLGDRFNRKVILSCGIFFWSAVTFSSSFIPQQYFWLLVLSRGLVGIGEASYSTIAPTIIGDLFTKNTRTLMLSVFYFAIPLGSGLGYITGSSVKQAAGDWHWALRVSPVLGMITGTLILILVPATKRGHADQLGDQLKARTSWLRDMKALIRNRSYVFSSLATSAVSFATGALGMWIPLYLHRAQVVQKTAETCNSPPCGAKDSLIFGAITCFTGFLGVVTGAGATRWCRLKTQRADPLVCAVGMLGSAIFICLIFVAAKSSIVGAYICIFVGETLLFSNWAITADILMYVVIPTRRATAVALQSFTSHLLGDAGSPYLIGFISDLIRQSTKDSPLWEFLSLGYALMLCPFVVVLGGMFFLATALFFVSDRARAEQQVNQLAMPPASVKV
Assay: S1P transporter assay: growth of S. cerevisiae strain with forced expression of a mammalian SphK and human SPNS2
Assay type: cell-based
Details: in vitro inhibition of SPNS2; growth of S. cerevisiae strain expressing mammalian SphK and human SPNS2; compounds as their pharmaceutical salts
Description: Transporter assays are vectorial and, therefore, require measurement of the transported analyte in different compartments. The assay of S1P transporters is problematic because S1P is exported, but not imported, by SPNS2, which obviates measuring uptake of mass- or radio-labeled S1P into transporter-expressing cells.
To assay for SPNS2 inhibitor hits, we took advantage of the growth inhibitory effects of excessive levels of phosphorylated Long Chain Base (phospho-LCB) levels on the budding yeast, S. cerevisiae (Kharel Y, et al. Saccharomyces cerevisiae as a platform for assessing sphingolipid lipid kinase inhibitors. PLoS One 13, e0192179 (2018) PMC5908134). Yeast lack the desaturase that converts dihydroceramide to ceramide and, therefore, have neither sphingosine nor S1P. Rather, yeast have the reduced form, dihydrosphingosine, and the 4-hydroxyl analog, phytosphingosine and their respective phosphates. Like all eukaryotes, the yeast synthesizes (via LCB kinases (SphKs)) and degrades (via phospho-LCB lyase and phosphatase) phospho-LCBs, (dhS1P, phytoS1P). Yeast lack phospho-LCB transporters such as SPNS2, which are found only in vertebrates. To assess inhibition of SPNS2 in vitro, we used a strain of S. cerevisiae wherein expression of a mammalian SphK and human SPNS2 were forced. SPNS2 inhibitors decrease the growth of this strain. Table 2 below presents in vitro inhibition data against SPNS2 for exemplary compounds, presented here as their pharmaceutical salts, of the disclosure (A≤2 μM, B>2 μM).

IC50 | SMILES
> 2000 nM | CCCCCCCCCc1ccc(-c2noc([C@@H]3CCCNC3)n2)cc1C(F)(F)F [Compound 28d, (R)-3-(4-nonyl-3-(trifluoromethyl)phenyl)-5-(piperidin-3-yl)-1,2,4-oxadiazole hydrochloride]
> 2000 nM | CCCCCCCCCCc1ccc(-c2noc([C@@H]3CCCNC3)n2)cc1C(F)(F)F [Compound 28e, (R)-3-(4-decyl-3-(trifluoromethyl)phenyl)-5-(piperidin-3-yl)-1,2,4-oxadiazole hydrochloride]
> 2000 nM | CCCCCCCCCCCc1ccc(-c2noc([C@@H]3CCCNC3)n2)cc1C(F)(F)F [Compound 28f, (R)-5-(piperidin-3-yl)-3-(3-(trifluoromethyl)-4-undecylphenyl)-1,2,4-oxadiazole hydrochloride]
> 2000 nM | CCCCCCCCCCc1ccc(-c2noc(C[C@@H]3CCNC3)n2)cc1C(F)(F)F [Compound 28g, (S)-3-(4-decyl-3-(trifluoromethyl)phenyl)-5-(pyrrolidin-3-ylmethyl)-1,2,4-oxadiazole hydrochloride]
≤ 2000 nM | CCCCCCCCCc1ccc(-c2noc(C3CN(C(=N)N)C3)n2)cc1C(F)(F)F [Compound 30a, 3-(3-(4-nonyl-3-(trifluoromethyl)phenyl)-1,2,4-oxadiazol-5-yl)azetidine-1-carboximidamide hydrochloride]
≤ 2000 nM | CCCCCCCCCCc1ccc(-c2noc(C3CN(C(=N)N)C3)n2)cc1C(F)(F)F [Compound 30b, 3-(3-(4-decyl-3-(trifluoromethyl)phenyl)-1,2,4-oxadiazol-5-yl)azetidine-1-carboximidamide hydrochloride]
> 2000 nM | CCCCCCCCCCCc1ccc(-c2noc(C3CN(C(=N)N)C3)n2)cc1C(F)(F)F [Compound 30c, 3-(3-(3-(trifluoromethyl)-4-undecylphenyl)-1,2,4-oxadiazol-5-yl)azetidine-1-carboximidamide hydrochloride]
≤ 2000 nM | CCCCCCCCCc1ccc(-c2noc([C@@H]3CCCN(C(=N)N)C3)n2)cc1C(F)(F)F [Compound 30d, (R)-3-(3-(4-nonyl-3-(trifluoromethyl)phenyl)-1,2,4-oxadiazol-5-yl)piperidine-1-carboximidamide hydrochloride]
≤ 2000 nM | CCCCCCCCCCc1ccc(-c2noc([C@@H]3CCCN(C(=N)N)C3)n2)cc1C(F)(F)F [Compound 30e, (R)-3-(3-(4-decyl-3-(trifluoromethyl)phenyl)-1,2,4-oxadiazol-5-yl)piperidine-1-carboximidamide hydrochloride]
> 2000 nM | CCCCCCCCCCCc1ccc(-c2noc([C@@H]3CCCN(C(=N)N)C3)n2)cc1C(F)(F)F [Compound 30f, (R)-3-(3-(3-(trifluoromethyl)-4-undecylphenyl)-1,2,4-oxadiazol-5-yl)piperidine-1-carboximidamide hydrochloride]
> 2000 nM | CCCCCCCCCCc1ccc(-c2noc(C[C@@H]3CCN(C(=N)N)C3)n2)cc1C(F)(F)F [Compound 30g, (S)-3-((3-(4-decyl-3-(trifluoromethyl)phenyl)-1,2,4-oxadiazol-5-yl)methyl)pyrrolidine-1-carboximidamide hydrochloride]
≤ 2000 nM | C/C(=N\OCCCCc1ccccc1)c1ccc(-c2noc([C@@H]3CCNC3)n2)cc1 [Compound 38a, (R)-1-(4-(5-(pyrrolidin-3-yl)-1,2,4-oxadiazol-3-yl)phenyl)ethan-1-one O-(4-phenylbutyl) oxime hydrochloride]
≤ 2000 nM | C/C(=N\OCc1cc(C(F)(F)F)cc(C(F)(F)F)c1)c1ccc(-c2noc([C@@H]3CCNC3)n2)cc1 [Compound 38b, (R)-1-(4-(5-(pyrrolidin-3-yl)-1,2,4-oxadiazol-3-yl)phenyl)ethan-1-one O-(3,5-bis(trifluoromethyl)benzyl) oxime hydrochloride]
> 2000 nM | C/C(=N\OCc1ccc(C(F)(F)F)cc1)c1ccc(-c2noc([C@@H]3CCNC3)n2)cc1 [Compound 38c, (R)-1-(4-(5-(pyrrolidin-3-yl)-1,2,4-oxadiazol-3-yl)phenyl)ethan-1-one O-(4-(trifluoromethyl)benzyl) oxime hydrochloride]
> 2000 nM | C/C(=N\OCc1ccc(-c2ccccc2)cc1)c1ccc(-c2noc([C@@H]3CCNC3)n2)cc1 [Compound 38d, (R)-1-(4-(5-(pyrrolidin-3-yl)-1,2,4-oxadiazol-3-yl)phenyl)ethan-1-one O-([1,1′-biphenyl]-4-ylmethyl) oxime hydrochloride]
> 2000 nM | C/C(=N\OCc1ccccc1)c1ccc(-c2noc([C@@H]3CCNC3)n2)cc1 [Compound 38g, (R)-1-(4-(5-(pyrrolidin-3-yl)-1,2,4-oxadiazol-3-yl)phenyl)ethan-1-one O-benzyl oxime hydrochloride]
> 2000 nM | C/C(=N\OCc1ccc2c(c1)C(C)(C)CCC2(C)C)c1ccc(-c2noc([C@@H]3CCNC3)n2)cc1 [Compound 38h, (R)-1-(4-(5-(pyrrolidin-3-yl)-1,2,4-oxadiazol-3-yl)phenyl)ethan-1-one O-((5,5,8,8-tetramethyl-5,6,7,8-tetrahydronaphthalen-2-yl)methyl) oxime hydrochloride]
> 2000 nM | CCCCCCCO/N=C(\C)c1ccc(-c2noc([C@@H]3CCNC3)n2)cc1 [Compound 38i, hydrochloride]
> 2000 nM | CCCCCCCCCO/N=C(\C)c1ccc(-c2noc([C@@H]3CCNC3)n2)cc1 [Compound 38j, hydrochloride]
≤ 2000 nM | C/C(=N\OCc1ccc(C(C)(C)C)cc1)c1ccc(-c2noc([C@@H]3CCNC3)n2)cc1 [Compound 38k, (R,E)-1-(4-(5-(pyrrolidin-3-yl)-1,2,4-oxadiazol-3-yl)phenyl)ethan-1-one O-(4-(tert-butyl)benzyl) oxime hydrochlorid]
> 2000 nM | CCCCCO/N=C(\C)c1ccc(-c2noc([C@@H]3CCNC3)n2)cc1 [Compound 38l, (R)-1-(4-(5-(pyrrolidin-3-yl)-1,2,4-oxadiazol-3-yl)phenyl)ethan-1-one O-pentyl oxime hydrochloride]
≤ 2000 nM | C/C(=N\OCc1ccc(Br)cc1)c1ccc(-c2noc([C@@H]3CCNC3)n2)cc1 [Compound 38n, (R)-1-(4-(5-(pyrrolidin-3-yl)-1,2,4-oxadiazol-3-yl)phenyl)ethan-1-one O-(4-bromobenzyl) oxime hydrochloride]
> 2000 nM | CCCCNC(=O)c1ccc(-c2noc([C@@H]3CCNC3)n2)cc1 [Compound 38o, (R)—N-butyl-4-(5-(pyrrolidin-3-yl)-1,2,4-oxadiazol-3-yl)benzamide hydrochloride]
> 2000 nM | CCCCCCCCNC(=O)c1ccc(-c2noc([C@@H]3CCNC3)n2)cc1 [Compound 38p, (R)—N-octyl-4-(5-(pyrrolidin-3-yl)-1,2,4-oxadiazol-3-yl)benzamide hydrochloride]
≤ 2000 nM | C/C(=N\OCc1cc(C(F)(F)F)cc(C(F)(F)F)c1)c1ccc(-c2noc([C@@H]3CCN(C(=N)N)C3)n2)cc1 [Compound 40b, (R)-3-(3-(4-(1-(((3,5-bis(trifluoromethyl)benzyl)oxy)imino)ethyl)phenyl)-1,2,4-oxadiazol-5-yl)pyrrolidine-1-carboximidamide hydrochloride]

SMILES | IC50
C/C(=N\OCCCCc1ccccc1)c1ccc(-c2noc([C@@H]3CCN(C(=N)N)C3)n2)cc1 [Compound 40a, (R)-3-(3-(4-(1-((4-phenylbutoxy)imino)ethyl)phenyl)-1,2,4-oxadiazol-5-yl)pyrrolidine-1-carboximidamide hydrochloride] | ≤ 2000 nM
